The record followed here is ChEMBL document CHEMBL4017488, “Glucuronides as Potential Anionic Substrates of Human Cytochrome P450 2C8 (CYP2C8)” (J Med Chem, 2017).

For data set [1], the target named is T1, Cytochrome P450 2C8 (Homo sapiens, UniProt P10632).
T1 sequence (P10632 whole entry): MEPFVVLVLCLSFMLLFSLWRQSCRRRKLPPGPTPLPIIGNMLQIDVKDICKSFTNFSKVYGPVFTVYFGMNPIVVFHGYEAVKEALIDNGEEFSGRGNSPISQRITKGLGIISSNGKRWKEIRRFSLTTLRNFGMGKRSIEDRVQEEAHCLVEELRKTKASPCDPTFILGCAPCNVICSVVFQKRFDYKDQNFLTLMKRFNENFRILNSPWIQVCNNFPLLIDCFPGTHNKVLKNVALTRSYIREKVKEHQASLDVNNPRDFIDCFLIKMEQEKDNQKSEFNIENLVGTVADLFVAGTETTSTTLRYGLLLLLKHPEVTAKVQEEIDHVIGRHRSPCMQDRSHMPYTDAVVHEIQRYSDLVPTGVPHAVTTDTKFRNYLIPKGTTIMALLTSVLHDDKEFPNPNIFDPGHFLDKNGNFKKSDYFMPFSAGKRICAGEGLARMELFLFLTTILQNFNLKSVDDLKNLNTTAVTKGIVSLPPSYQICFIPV
As to the kind of experiment: (§1) Time dependent inhibition of CYP2C8 in human liver microsomes after 5 mins by LC-MS/MS analysis. Format: ADME.

In data set [2] the target is T2, CYP2C8 (Homo sapiens, UniProt P10632).
T2 sequence (P10632 whole entry): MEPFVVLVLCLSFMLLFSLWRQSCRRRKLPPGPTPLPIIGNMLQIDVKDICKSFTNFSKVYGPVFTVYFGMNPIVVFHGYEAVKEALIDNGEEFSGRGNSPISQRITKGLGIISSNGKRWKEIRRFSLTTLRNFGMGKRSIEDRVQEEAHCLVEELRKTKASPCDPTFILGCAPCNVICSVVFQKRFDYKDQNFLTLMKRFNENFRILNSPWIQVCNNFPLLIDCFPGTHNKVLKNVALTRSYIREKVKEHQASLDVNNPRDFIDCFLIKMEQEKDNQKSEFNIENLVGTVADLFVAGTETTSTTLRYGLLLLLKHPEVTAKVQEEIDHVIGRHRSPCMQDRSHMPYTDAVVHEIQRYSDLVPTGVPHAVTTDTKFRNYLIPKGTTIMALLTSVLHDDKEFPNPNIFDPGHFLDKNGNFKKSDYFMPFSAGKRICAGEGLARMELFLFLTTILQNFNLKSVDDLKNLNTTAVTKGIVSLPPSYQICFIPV
The data set is described as §1. It counts as ADME. Conditions: human, liver microsomes. (Liver microsomes are a subcellular fraction often used to study metabolism.)

Data set [3] deals with T1, Cytochrome P450 2C8. Put plainly: Reversible inhibition of CYP2C8 in human liver microsomes after 5 mins by LC-MS/MS analysis. It counts as ADME.
The target in a further data set is T3, CYP1A2 (Homo sapiens, UniProt P05177).
T3 sequence (P05177 whole entry): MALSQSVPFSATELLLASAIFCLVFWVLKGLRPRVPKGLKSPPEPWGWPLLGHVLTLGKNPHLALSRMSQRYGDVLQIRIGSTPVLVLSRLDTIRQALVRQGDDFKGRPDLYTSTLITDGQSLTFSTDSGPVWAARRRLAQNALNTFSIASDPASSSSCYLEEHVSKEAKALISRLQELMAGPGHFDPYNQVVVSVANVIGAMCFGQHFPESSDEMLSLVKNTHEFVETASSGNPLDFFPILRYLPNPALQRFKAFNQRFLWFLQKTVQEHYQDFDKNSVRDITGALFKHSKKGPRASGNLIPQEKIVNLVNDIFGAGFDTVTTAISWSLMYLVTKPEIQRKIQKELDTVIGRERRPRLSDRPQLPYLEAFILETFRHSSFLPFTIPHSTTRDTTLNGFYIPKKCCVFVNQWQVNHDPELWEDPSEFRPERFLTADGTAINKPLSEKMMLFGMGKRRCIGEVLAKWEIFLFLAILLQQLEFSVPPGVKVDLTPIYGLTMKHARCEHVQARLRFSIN
Put plainly: (§2) Inactivation of CYP1A2 in human liver microsomes after 5 mins by LC-MS/MS analysis. It counts as ADME. The note with it: human, liver microsomes.

A further data set deals with T4, Cytochrome P450 1A2 (Homo sapiens, UniProt P05177).
T4 sequence (P05177 whole entry): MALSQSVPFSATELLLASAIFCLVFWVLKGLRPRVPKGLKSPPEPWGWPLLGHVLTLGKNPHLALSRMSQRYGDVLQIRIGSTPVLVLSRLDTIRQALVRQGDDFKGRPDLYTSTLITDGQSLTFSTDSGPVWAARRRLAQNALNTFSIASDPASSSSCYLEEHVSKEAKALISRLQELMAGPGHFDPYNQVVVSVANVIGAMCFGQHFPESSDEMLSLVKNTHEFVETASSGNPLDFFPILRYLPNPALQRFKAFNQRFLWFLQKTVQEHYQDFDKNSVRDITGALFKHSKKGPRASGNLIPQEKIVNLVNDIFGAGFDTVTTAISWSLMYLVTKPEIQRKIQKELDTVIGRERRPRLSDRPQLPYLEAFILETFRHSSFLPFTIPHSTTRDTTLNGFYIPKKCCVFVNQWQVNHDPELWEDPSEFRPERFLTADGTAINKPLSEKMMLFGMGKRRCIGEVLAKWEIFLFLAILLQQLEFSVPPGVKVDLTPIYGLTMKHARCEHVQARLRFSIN
The description is as §2. It counts as ADME.

The subject of data set [4] is Blood. Put plainly: In vivo drug metabolism in human assessed as UGT-mediated deleobuvir acyl glucuronide metabolite formation in blood at 800 mg,po administered as single dose measured up to 12 hrs. Format: ADME, organism-based.
The subject of data set [5] is Blood. Put plainly: In vivo drug metabolism in human assessed as 3-(2-(1-(2-(5-bromopyrimidin-2-yl)-3-cyclopentyl-1-methyl-1H-indole-6-carboxamido)cyclobutyl)-1-methyl-1H-benzo[d]imidazol-6-yl)propanoic acid metabolite formation in blood at 800 mg,po administered as single dose measured up to 12 hrs by radiolabled assay. It counts as ADME, organism-based.
Data set [6] concerns the target T1, Cytochrome P450 2C8. Put plainly: (§3) Inhibition of CYP2C8 in human liver microsomes preincubated for 30 mins followed by substrate addition measured after 2 mins. It counts as ADME.
Data set [7] deals with T2, CYP2C8. The data set is described as §3. It counts as ADME. Conditions: human, liver microsomes.
Data set [8] can be described thus: In vivo drug metabolism in human assessed as UGT2B7-mediated gemfibrozil-1-O-beta-glucuronide metabolite levels in urine at 450 mg, po after 24 hrs by HPLC analysis. Format: ADME, organism-based.
For data set [9], the system named is Homo sapiens. Put plainly: In vivo inhibition of CYP2C8 in human assessed as reduction in gemfibrozil-1-O-glucuronide metabolite formation in plasma at 30 mg, po administered as single dose measured after 10 hrs by LC-MS/MS analysis.
Data set [10] in a line: In vivo drug metabolism in human assessed as CYP2C8-mediated gemfibrozil-1-O-beta-glucuronide-5'-benzyl alcohol metabolite levels in urine at 450 mg, po after 24 hrs by HPLC analysis. It counts as ADME, organism-based.
Data set [11] is described as follows: In vivo drug metabolism in human assessed as CYP2C8-mediated gemfibrozil-1-O-beta-glucuronide-2'-benzyl alcohol metabolite levels in urine at 450 mg, po after 24 hrs by HPLC analysis. Format: ADME, organism-based.
In data set [12] the test system is Homo sapiens. As to the kind of experiment: In vivo drug metabolism in human assessed as CYP2C9-mediated 4'-hydroxydiclofinac metabolite formation. Format: ADME, organism-based.
The nature of data set [13]: In vivo drug metabolism in human assessed as UGT2B7-mediated 4'-hydroxydiclofinac acyl glucuronide level in urine. It counts as ADME, organism-based.
Data set [14] can be described thus: In vivo drug metabolism in human assessed as CYP2C8-mediated glucuronide conjugate formation in urine by LC-MS/MS analysis. Format: ADME, organism-based.
The target in data set [15] is T1, Cytochrome P450 2C8. Put plainly: Inhibition of CYP2C8 in human liver microsomes using paclitaxel as substrate preincubated for 2 to 40 mins followed by NADPH-generating system addition measured after 2 mins. Format: ADME.
For data set [16], the target named is T1, Cytochrome P450 2C8. Put plainly: Inhibition of CYP2C8 in human liver microsomes using paclitaxel as substrate after 5 mins. Format: ADME.
Substrate in data set [17]: C[C@]12CC[C@@H]3c4ccc(O)cc4CC[C@H]3[C@@H]1CC[C@@H]2O[C@@H]1O[C@H](C(=O)O)[C@@H](O)[C@H](O)[C@H]1O
Put plainly: Drug metabolism in human liver microsomes assessed as CYP2C8-mediated glucuronide conjugate formation per nmol of protein after 30 mins by HPLC-MS/MS analysis. Format: ADME.

A word on the kinact: it is the maximal first-order rate at which the target is inactivated. For the molecule `Cn1c(C2(NC(=O)c3ccc4c(C5CCCC5)c(-c5ncc(Br)cn5)n(C)c4c3)CCC2)nc2ccc(/C=C/C(=O)O[C@@H]3O[C@H](C(=O)O)[C@@H](O)[C@H](O)[C@H]3O)cc21`, the Ki amounted to 0.0521 µM at Cytochrome P450 2C8 [1], 0.022 µM on Cytochrome P450 2C8 [3] and 54.6 µM at Cytochrome P450 1A2. The values for the kinact at 5 min on CYP2C8 [2] and at CYP1A2 were 0.000868 s⁻¹ and 0.000733 s⁻¹, respectively.

In the case of `Cn1c(C2(NC(=O)c3ccc4c(C5CCCC5)c(-c5ncc(Br)cn5)n(C)c4c3)CCC2)nc2ccc(/C=C/C(=O)O)cc21` [DELEOBUVIR], the values for the Drug metabolism with Blood [4] and with Blood [5] were 20 %ID and 15 %ID, respectively.

As for `O=C(O)[C@H]1O[C@@H](OC(=O)[C@H](c2ccccc2Cl)N2CCc3sccc3C2)[C@H](O)[C@@H](O)[C@@H]1O`, at Cytochrome P450 2C8 [6], the Ki worked out at 9.9 µM. Besides, the kinact at 2 min at CYP2C8 [7] was 0.000783 s⁻¹.

As to `Cc1ccc(C)c(OCCCC(C)(C)C(=O)O)c1` [GEMFIBROZIL], the Drug metabolism in data set [8] is on record as 32 %ID; in data set [10] it was 20 %ID; in [11], 20 %ID. In addition, in the data set with Homo sapiens [9], the “inhibition (INH)” value is listed as 50%.

With `O=C(O)Cc1ccccc1Nc1c(Cl)cccc1Cl` [DICLOFENAC], the Drug metabolism is 30 %ID in the data set with Homo sapiens [12] and 10 to 20 %ID in data set [13].

Regarding `CC(C)Cc1ccc(C(C)C(=O)O)cc1` (stereo not given) [IBUPROFEN], in [14], the Drug metabolism lay within 10 to 15 %ID.

For orientation: IC50 means the concentration at which inhibition is half-maximal. Low readings indicate greater potency, high ones weaker potency. For `Cc1ccc(C)c(OCCCC(C)(C)C(=O)O[C@@H]2O[C@H](C(=O)O)[C@@H](O)[C@H](O)[C@H]2O)c1`, at Cytochrome P450 2C8 [15], the Ki is 52 µM. This molecule also yielded an IC50 at Cytochrome P450 2C8 [16] of 24 µM.

B1: Cytochrome P450 2C8 (Homo sapiens) (protein)
chain: MEPFVVLVLCLSFMLLFSLWRQSCRRRKLPPGPTPLPIIGNMLQIDVKDICKSFTNFSKVYGPVFTVYFGMNPIVVFHGYEAVKEALIDNGEEFSGRGNSPISQRITKGLGIISSNGKRWKEIRRFSLTTLRNFGMGKRSIEDRVQEEAHCLVEELRKTKASPCDPTFILGCAPCNVICSVVFQKRFDYKDQNFLTLMKRFNENFRILNSPWIQVCNNFPLLIDCFPGTHNKVLKNVALTRSYIREKVKEHQASLDVNNPRDFIDCFLIKMEQEKDNQKSEFNIENLVGTVADLFVAGTETTSTTLRYGLLLLLKHPEVTAKVQEEIDHVIGRHRSPCMQDRSHMPYTDAVVHEIQRYSDLVPTGVPHAVTTDTKFRNYLIPKGTTIMALLTSVLHDDKEFPNPNIFDPGHFLDKNGNFKKSDYFMPFSAGKRICAGEGLARMELFLFLTTILQNFNLKSVDDLKNLNTTAVTKGIVSLPPSYQICFIPV
For orientation: Km means the substrate concentration at which the rate is half of its maximum. What is called Vmax is the top rate of the reaction or transport when substrate is in excess. As for B1, in data set [17], the Km was found to be 88 µM and the maximum rate (Vmax) was 0.00186 µmol/min.
